From publication PMC9617636 (Antiviral Research, 2022)
Like-named read-outs stand apart in the source and are kept apart here.

How the values were obtained:
B.1.1.7 SARS-CoV-2 = experiment: Antiviral assay in Calu3 cells; format: cell-based
Influenza A virus (H1N1) = experiment: Antiviral activity against Influenza A virus; format: cell-based, Influenza virus A/Netherlands/602/2009
in vitro [1] = details: dog
SARS-CoV-2 GFP = format: cell-based
in vitro [2] = details: human
SARS-CoV-2 viral RNA = format: cell-based
HCoV-229e = experiment: microbe, parasite or virus in culture; format: cell-based; details: Human coronavirus 229E
A549 cells = format: cell-based; details: 600 μM
SARS-CoV-2 nucleocapsid = format: cell-based
SARS-CoV-2 [3] = format: cell-based
in vitro [4] = details: African green monkey
[5] = system: −1 PRF signal of SARS-CoV-2; format: cell-based
Mucilair tissues = format: cell-based, human; details: MTS assay at 96hpi, 30 μg/tissue
SARS-CoV-2 [6] = experiment: Antiviral plaque assay in Vero-E6 cells; format: cell-based
in vitro [7] = details: human; remark: listed apart in the source
Vero-E6 cells = details: listed as of SARS-CoV-2 B.1.1.7 (Alpha)
[8] = Severe acute respiratory syndrome coronavirus 2, Calu-3, read-out: EC50 (95% CI)
[9] = CC50, row of SARS-CoV-2 B.1.1.7 (Alpha)
[10] = Severe acute respiratory syndrome coronavirus 2, Vero C1008, read-out: EC50 (95% CI)
[11] = Severe acute respiratory syndrome coronavirus 2, Vero C1008, read-out: EC90 (95% CI), SARS-CoV-2 B.1.1.7 (Alpha), Vero-E6

CN[C@@H]1[C@@H](O)[C@@H](O[C@@H]2[C@@H](O)[C@H](O[C@H]3O[C@H]([C@@H](C)O)[C@@H](O)[C@H](O)[C@H]3N)[C@@H](N)C[C@H]2N)OC[C@]1(C)O [Geneticin]
EC50 (B.1.1.7 SARS-CoV-2; [8]): 164 µM
EC50 (Influenza A virus (H1N1); read-out: EC50 (95% CI)): > 600 µM
antiviral activity against Influenza A virus (H1N1) (Influenza A virus (H1N1); unrelated virus): lack of activity
CC50 (in vitro [1]): 5840 µM
GFP intensity in the infected cells (SARS-CoV-2 GFP): significantly reduced
number of infected (GFP positive) cells (SARS-CoV-2 GFP): marked reduction in the number of infected cells
CC50 (in vitro [2]): 684 µM
viral RNA replication (SARS-CoV-2 viral RNA): inhibition of viral RNA replication
EC50 (HCoV-229e; Huh-7, read-out: EC50 (95% CI)): 7.21 µM
EC90 (HCoV-229e; Huh-7, read-out: EC90 (95% CI)): 23.9 µM
protein synthesis in the cell (A549 cells): not impaired
viral protein production (nucleocapsid over alpha tubulin) (SARS-CoV-2 nucleocapsid): decrease in viral protein production
protection from viral infection (apical viral RNA and plaque titre) (SARS-CoV-2 [3]): significant protection from viral infections
CC50 (in vitro [4]; [9]): 3950 µM
CC50 (in vitro [4]; CC50, row of SARS-CoV-2 B.1.351 (Beta)): 3950 µM
CC50 (in vitro [4]; CC50, row of SARS-CoV-2 B.1.617.2 (Delta)): 3950 µM
CC50 (in vitro [4]; CC50, row of SARS-CoV-2 BA.1 (Omicron)): 934 µM
−1 PRF efficiency [5]: reduction in the −1 PRF efficiency
viability of the tissues (Mucilair tissues): without a decrease in viability
EC50 (SARS-CoV-2 [6]; [10]): 47.2 µM
EC50 (SARS-CoV-2 [6]; Severe acute respiratory syndrome coronavirus 2, Vero C1008, read-out: EC50 (95% CI), SARS-CoV-2 B.1.160, Vero-E6): 31.6 µM
EC50 (SARS-CoV-2 [6]; Severe acute respiratory syndrome coronavirus 2, Vero C1008, read-out: EC50 (95% CI), SARS-CoV-2 B.1.177, Vero-E6): 102 µM
EC50 (SARS-CoV-2 [6]; Severe acute respiratory syndrome coronavirus 2, Vero C1008, read-out: EC50 (95% CI), SARS-CoV-2 B.1.258, Vero-E6): 42.4 µM
EC50 (SARS-CoV-2 [6]; Severe acute respiratory syndrome coronavirus 2, Vero C1008, read-out: EC50 (95% CI), SARS-CoV-2 B.1.617.2 (Delta), Vero-E6): 32.8 µM
EC50 (SARS-CoV-2 [6]; Severe acute respiratory syndrome coronavirus 2, Vero C1008, read-out: EC50 (95% CI), SARS-CoV-2 BA.1 (Omicron), Vero-E6): 25.7 µM
EC90 (SARS-CoV-2 [6]; [11]): 245 µM
EC90 (SARS-CoV-2 [6]; Severe acute respiratory syndrome coronavirus 2, Vero C1008, read-out: EC90 (95% CI), SARS-CoV-2 B.1.160, Vero-E6): 150 µM
EC90 (SARS-CoV-2 [6]; Severe acute respiratory syndrome coronavirus 2, Vero C1008, read-out: EC90 (95% CI), SARS-CoV-2 B.1.177, Vero-E6): 407 µM
EC90 (SARS-CoV-2 [6]; Severe acute respiratory syndrome coronavirus 2, Vero C1008, read-out: EC90 (95% CI), SARS-CoV-2 B.1.258, Vero-E6): 163 µM
EC90 (SARS-CoV-2 [6]; Severe acute respiratory syndrome coronavirus 2, Vero C1008, read-out: EC90 (95% CI), SARS-CoV-2 B.1.351 (Beta), Vero-E6): 542 µM
EC90 (SARS-CoV-2 [6]; Severe acute respiratory syndrome coronavirus 2, Vero C1008, read-out: EC90 (95% CI), SARS-CoV-2 B.1.617.2 (Delta), Vero-E6): 201 µM
EC90 (SARS-CoV-2 [6]; Severe acute respiratory syndrome coronavirus 2, Vero C1008, read-out: EC90 (95% CI), SARS-CoV-2 BA.1 (Omicron), Vero-E6): 155 µM
CC50 (in vitro [7]): > 600 µM

CCNCC1CCN(c2c(F)cc3c(=O)c(C(=O)O)cn(CC)c3c2F)C1 (stereo not shown) [Merafloxacin]
EC50 (B.1.1.7 SARS-CoV-2; [8]): 21.8 µM
viral RNA replication (SARS-CoV-2 viral RNA): inhibition of viral RNA replication
viral protein production (nucleocapsid over alpha tubulin) (SARS-CoV-2 nucleocapsid): decrease in viral protein production
CC50 (in vitro [4]; [9]): > 100 µM
−1 PRF efficiency [5]: reduction in the −1 PRF efficiency
EC50 (SARS-CoV-2 [6]; [10]): 23.7 µM
EC90 (SARS-CoV-2 [6]; [11]): 116 µM
CC50 (in vitro [7]): > 100 µM

Sotrovimab
EC50 (B.1.1.7 SARS-CoV-2; read-out: EC50 (95% CI)): 0.0041 µM
CC50 (Vero-E6 cells): > 0.68 µM
EC50 (SARS-CoV-2 [6]; read-out: EC50 (95% CI)): 0.00013 µM
EC90 (SARS-CoV-2 [6]; read-out: EC90 (95% CI), SARS-CoV-2 B.1.1.7 (Alpha), Vero-E6): 0.0042 µM
CC50 (Calu3 cells): > 0.68 µM
